# Assay results: US10323028B2, “1,3,4-thiadiazole compounds and their use in treating cancer” (AstraZeneca AB, priority 2015, dated 2019)
# pIC50: −log10 of the molar value. Read-outs that look alike come from different tables or passages of the source.
# What was measured:
# [1] = molecular target: cellular GLS activity in PC3 cells (Homo sapiens (Human), UniProt O94925); assay: GLS Cell Potency Assay (PC3 coupled assay measuring cellular glutamate depletion); assay type: cell-based; details: PC3 cells, 6 h incubation, glutamate depletion; read-out: Assay b) GLS cell MOA Mean IC50
# Chain of cellular GLS activity in PC3 cells (O94925 73-669): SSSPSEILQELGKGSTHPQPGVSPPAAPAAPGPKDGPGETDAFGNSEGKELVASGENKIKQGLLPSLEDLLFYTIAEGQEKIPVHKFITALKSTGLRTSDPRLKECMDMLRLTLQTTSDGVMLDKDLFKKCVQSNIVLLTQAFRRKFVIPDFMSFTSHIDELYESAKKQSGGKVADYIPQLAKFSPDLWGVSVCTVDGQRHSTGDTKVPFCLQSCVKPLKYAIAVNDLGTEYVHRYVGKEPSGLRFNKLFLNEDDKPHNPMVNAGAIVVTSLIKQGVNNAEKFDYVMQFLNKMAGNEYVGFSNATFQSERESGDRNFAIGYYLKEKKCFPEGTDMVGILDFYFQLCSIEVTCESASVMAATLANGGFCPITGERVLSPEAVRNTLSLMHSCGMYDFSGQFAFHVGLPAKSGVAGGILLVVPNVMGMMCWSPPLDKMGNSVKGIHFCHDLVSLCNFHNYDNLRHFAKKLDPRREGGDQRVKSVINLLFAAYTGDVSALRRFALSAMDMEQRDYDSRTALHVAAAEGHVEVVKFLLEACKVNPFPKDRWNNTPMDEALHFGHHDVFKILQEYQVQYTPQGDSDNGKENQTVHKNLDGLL
# From the text: (§1) The following assays were used to measure the effects of the compounds described herein: a) GLS Enzyme Potency Assay; b) GLS Cell Potency Assay; c) GLS Cell Proliferation Assay. During the description of the assays, generally: • i. The following abbreviations have been used: CO2=Carbon dioxide; DMEM=Dulbecco's Modified Eagle Medium; DMSO=Dimethyl sulphoxide; EDTA=Ethylenediaminetetraacetic acid; EGTA=Ethylene glycol tetraacetic acid; FCS=Foetal calf serum; h=Hour(s); NBS=Non-binding surface; SDS=Sodium dodecyl sulphate; TRIS=Tris(Hydroxymethyl)aminomethane. • ii. IC50 values were calculated using a smart fitting model in Genedata.
# Assay b): GLS Cell Potency Assay
# Compounds were assessed for their potential to inhibit cellular GLS activity by use of a PC3 coupled assay measuring cellular glutamate depletion. […] DMSO concentration was maintained at 0.3% by back filling with DMSO solution. PC3 cells were grown in phenol free DMEM, 10% dialyzed FCS, 2 mM glutamine and following dispersal by trypsinisation were plated at 5.6×10^3 cells per well in 40 μl of growth medium directly into the 384 well assay plates containing dispensed compound. After incubation for 6 h at 37° C., 5% CO2 growth media was aspirated and cells lysed in 15 μl of buffer containing 10 mM TRIS pH7.4, 100 mM NaCl, 1 mM EDTA, 1 mM EGTA, 1 mM NaF, 20 mM Na4P2O7, 2 mM Na3VO4, 1% Triton X-100, 10% glycerol, 0.1% SDS and 0.5% deoxycholate.
# [2] = test system: NCI-H1703 cells; assay: GLS Cell Proliferation Assay (NCI-H1703 cell proliferation); assay type: cell-based
# From the text: as §1
# Assay c): GLS Cell Proliferation Assay
# The ability of compounds to inhibit cell growth was measured using a 384 well plate NCI-H1703 cell proliferation assay. NCI-H1703 cells were grown in phenol red free RPMI1640, 10% FCS and 2 mM glutamine and seeded at a density of 750 cells per well in 40 μl of growth medium into clear-bottom 384 well assay plates (Corning product code 3712) and incubated for 24 h at 37° C., 5% CO2. […] DMSO concentration was maintained at 0.3% by back filling with DMSO solution. Plates were incubated for 5 days at 37° C., 5% CO2, Sytox Green and Saponin added to final concentration of 2 μM and 0.25% respectively and incubated for 6 h prior to analysis. […] IC50 values were calculated by curve fitting to max inhibition of day zero growth using GeneData software analysis.
# [3] = molecular target: GLS1 (Homo sapiens (Human), UniProt O94925); assay: GLS Enzyme Potency Assay (Glutamate Oxidase/AmplexRed coupled assay); assay type: biochemical
# Chain of GLS1 (O94925 63-669): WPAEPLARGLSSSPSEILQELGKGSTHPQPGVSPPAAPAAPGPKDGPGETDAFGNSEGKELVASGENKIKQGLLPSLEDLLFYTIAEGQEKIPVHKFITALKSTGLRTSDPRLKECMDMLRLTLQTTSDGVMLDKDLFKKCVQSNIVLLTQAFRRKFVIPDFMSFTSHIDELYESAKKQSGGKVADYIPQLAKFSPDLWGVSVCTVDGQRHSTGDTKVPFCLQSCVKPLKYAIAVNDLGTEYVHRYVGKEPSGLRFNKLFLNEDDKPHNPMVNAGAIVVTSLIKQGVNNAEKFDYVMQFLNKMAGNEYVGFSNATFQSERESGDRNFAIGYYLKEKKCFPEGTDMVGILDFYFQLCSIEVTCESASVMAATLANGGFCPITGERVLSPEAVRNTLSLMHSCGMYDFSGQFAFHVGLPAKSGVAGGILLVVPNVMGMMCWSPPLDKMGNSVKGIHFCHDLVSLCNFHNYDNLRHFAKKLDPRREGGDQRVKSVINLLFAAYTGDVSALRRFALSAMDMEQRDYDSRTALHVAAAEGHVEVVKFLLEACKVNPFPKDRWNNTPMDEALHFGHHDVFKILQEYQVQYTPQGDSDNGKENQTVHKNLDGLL
# From the text: as §1
# Assay a): GLS Enzyme Potency Assay
# A Glutamate Oxidase/AmplexRed coupled assay was used to measure the ability of compounds to bind to and inhibit the activity of GLS1 in vitro. […] GLS1 was diluted to 2× working concentration and incubated at room temperature to allow the tetrameric/dimeric forms to reach steady state. Assay measurements were performed in buffer comprising 50 mM TRIS pH 7.8, 100 mM NaPO4, pH 7.8, 0.001% v/v Tween20. Purified recombinant GLS1 protein was diluted in assay buffer to 12 nM and pre-incubated at room temperature for 30 minutes. […] DMSO concentration was maintained at 2% by back filling with DMSO solution. 3 μL of diluted GLS1 protein (12 nM) was then dispensed into each well using a BioRaptr automated dispenser (Beckman-Coulter) and incubated for 15 minutes at room temperature. 3 μL of 100 mM glutamine diluted in assay buffer was then added and the reaction incubated at room temperature for 60 minutes. […] An artefact version of the assay where the 6His tagged GLS protein and glutamine were replaced with assay buffer was also used to rule out non specific effects on the assay components.
# [4] = Homo sapiens, NCI-H1703, 120 h, NCI-H1703 cells, 5 days; read-out: Assay c) Prolif Mean IC50
# [5] = 6His tagged GLS protein (amino acids 63-669), recombinant; read-out: Assay a) enz IC50
# [6] = NCI-H1703 cells, 5 days; read-out: Assay c) Prolif Mean IC50
Structure (SMILES),pIC50 [1],"pIC50 [2, 4]","pIC50 [3, 5]","pIC50 [2, 6]",pIC50 ([3]; read-out: Assay a) enz IC50)
"CCO[C@@H](C(=O)Nc1nnc(N[C@@H]2CCN(c3cccnn3)C2)s1)c1cccc(N2CC(OC)C2)c1 [Example 22(b), (2R)-2-ethoxy-2-[3-(3-methoxyazetidin-1-yl)phenyl]-N-[5-[[(3R)-1-pyridazin-3-ylpyrrolidin-3-yl]amino]-1,3,4-thiadiazol-2-yl]acetamide]",7.97,6.75,,,
"COC(C(=O)Nc1nnc(N[C@@H]2CCN(c3cccnn3)C2)s1)c1ccc(F)c(N2CC(F)(F)C2)c1 (stereo partly drawn) [Example 37, 2-[3-(3,3-difluoroazetidin-1-yl)-4-fluoro-phenyl]-2-methoxy-N-[5-[[(3R)-1-pyridazin-3-ylpyrrolidin-3-yl]amino]-1,3,4-thiadiazol-2-yl]acetamide]",9.25,,6.83,7.68,
"CCOC(C(=O)Nc1nnc(N[C@@H]2CCN(c3cccnn3)C2)s1)c1cccc(N2CC(F)(F)C2)c1 (single isomer, unassigned) [Example 30]",8.49,,5.86,7.42,
"COC(C(=O)Nc1nnc(N[C@@H]2CCN(c3ccc(C)nn3)C2)s1)c1cccc(N2CC(F)C2)c1 (single isomer, unassigned) [Example 36]",7.66,,6.21,6.40,
"COC(C(=O)Nc1nnc(N[C@@H]2CCN(c3nccnn3)C2)s1)c1cccc(C2COC2)c1 (single isomer, unassigned) [Example 24]",8.46,,7.28,7.54,
"CO[C@H](C(=O)Nc1nnc(N[C@@H]2CCN(c3cccnn3)C2)s1)c1cccc(N2CC(F)C2)c1 (single isomer, unassigned) [Example 1(b)]",7.74,,,,7.14
"COc1cc(OC)cc(C(OC)C(=O)Nc2nnc(N[C@@H]3CCN(c4cccnn4)C3)s2)c1 (single isomer, unassigned) [Example 44]",8.05,,7.32,7.23,
"CCOC(C(=O)Nc1nnc(N[C@@H]2CCN(c3cccnn3)C2)s1)c1cccc(N2CC(OC)C2)c1 (stereo partly drawn) [Example 34, 2-ethoxy-2-[3-(3-methoxyazetidin-1-yl)phenyl]-N-[5-[[(3R)-1-pyridazin-3-ylpyrrolidin-3-yl]amino]-1,3,4-thiadiazol-2-yl]acetamide]",7.97,,,7.74,
"COc1cc(OC)cc([C@@H](OC)C(=O)Nc2nnc(N[C@@H]3CCN(c4cccnn4)C3)s2)c1 [Example 21(b), (2R)-2-(3,5-Dimethoxyphenyl)-2-methoxy-N-[5-[[(3R)-1-pyridazin-3-ylpyrrolidin-3-yl]amino]-1,3,4-thiadiazol-2-yl]acetamide]",8.05,7.23,7.32,,
"COc1cc(OC)cc([C@H](OC)C(=O)Nc2nnc(N[C@@H]3CCN(c4cccnn4)C3)s2)c1 [Example 21(a), (2S)-2-(3,5-Dimethoxyphenyl)-2-methoxy-N-[5-[[(3R)-1-pyridazin-3-ylpyrrolidin-3-yl]amino]-1,3,4-thiadiazol-2-yl]acetamide]",9.53,8.65,7.70,,
"COC(C(=O)Nc1nnc(N[C@@H]2CCN(c3nccnn3)C2)s1)c1cccc(C2COC2)c1 (single isomer, unassigned) [Example 25]",7.06,,5.74,6.08,
"COC[C@H](C(=O)Nc1nnc(N[C@@H]2CCN(c3ccc(C)nn3)C2)s1)c1ccccc1 (single isomer, unassigned) [45(b)]",7.95,,,,6.84
"CCOC(C(=O)Nc1nnc(N[C@@H]2CCN(c3cccnn3)C2)s1)c1cccc(N2CC(F)C2)c1 (single isomer, unassigned) [Example 31]",9.24,,7.01,8.49,
"COc1cc(OC)cc(C(OC)C(=O)Nc2nnc(N[C@@H]3CCN(c4cccnn4)C3)s2)c1 (stereo partly drawn) [Example 23, 2-(3,5-dimethoxyphenyl)-2-methoxy-N-[5-[[(3R)-1-pyridazin-3-ylpyrrolidin-3-yl]amino]-1,3,4-thiadiazol-2-yl]acetamide]",8.05,7.23,7.32,,
"COC(C(=O)Nc1nnc(N[C@@H]2CCN(c3ccc(F)nn3)C2)s1)c1cccc(N2CC(F)C2)c1 (single isomer, unassigned) [Example 27]",8.85,,6.83,7.87,

# More lines, in order of rising pIC50 [1], values ahead:
pIC50 [1],"pIC50 [2, 4]","pIC50 [3, 5]","pIC50 [2, 6]",pIC50 ([3]; read-out: Assay a) enz IC50),Structure (SMILES)
7.29,,6.71,6.58,,"COC(C(=O)Nc1nnc(N[C@@H]2CCN(c3ccc(F)nn3)C2)s1)c1cccc(N2CC(F)C2)c1 (single isomer, unassigned) [Example 28]"
8.92,,7.11,8.04,,"COC(C(=O)Nc1nnc(N[C@@H]2CCN(c3ccc(C)nn3)C2)s1)c1cccc(N2CC(F)C2)c1 (single isomer, unassigned) [Example 35]"
9.08,,7.69,,,"CO[C@H](C(=O)Nc1nnc(N[C@@H]2CCN(c3cccnn3)C2)s1)c1cccc(N2CC(F)C2)c1 (single isomer, unassigned) [Example 1(a)]"
9.39,,6.89,8.23,,"COC(C(=O)Nc1nnc(N[C@@H]2CCN(c3ccc(C)nn3)C2)s1)c1cccc(N2CC(F)(F)C2)c1 (stereo partly drawn) [Example 39, 2-[3-(3,3-difluoroazetidin-1-yl)phenyl]-2-methoxy-N-[5-[[(3R)-1-(6-methylpyridazin-3-yl)pyrrolidin-3-yl]amino]-1,3,4-thiadiazol-2-yl]acetamide]"
9.39,,7.29,8.71,,"CCOC(C(=O)Nc1nnc(N[C@@H]2CCN(c3cccnn3)C2)s1)c1cccc(N2CC(F)(F)C2)c1 (single isomer, unassigned) [Example 29]"
9.48,8.38,7.63,,,"COc1cc(OC)cc(C(OC)C(=O)Nc2nnc(N[C@@H]3CCN(c4ccc(F)nn4)C3)s2)c1 (stereo partly drawn) [Example 26, 2-(3,5-dimethoxyphenyl)-N-[5-[[(3R)-1-(6-fluoropyridazin-3-yl)pyrrolidin-3-yl]amino]-1,3,4-thiadiazol-2-yl]-2-methoxy-acetamide]"
9.53,,7.70,8.65,,"COc1cc(OC)cc(C(OC)C(=O)Nc2nnc(N[C@@H]3CCN(c4cccnn4)C3)s2)c1 (single isomer, unassigned) [Example 43]"
